From patent publication US20260159481A1, “INDOLE DERIVATIVE WITH SUBSTITUENT AND PHARMACEUTICAL USE” (MITOIMMUNE THERAPEUTICS INC., priority 2023, published 2026)
pEC50: −log10 of the molar value.

What follows are compounds tested on cardiac cells (H9C2) (assay: Protective effect against t-BHP-induced cell death in cardiac cells (LDH release)). Details: Rattus norvegicus, t-BHP 400 PM, 2 hours, read-out: EC50, protective effect against cell death due to t-BHP induction.
Assay type: cell-based
Experimental: To confirm a protective effect on cardiac cells, H9C2 cells were seeded at 1.5×10^4 cells/well in a 96-well plate and cultured for 24 hours. The example compounds were diluted to have the final concentration of 0.001, 0.01, 0.03, 0.1, 0.3, 1, 3, 10, and 30 PM, respectively, and then added to different wells, and the resulting cells were cultured for 15 to 20 minutes. Tert-butyl hydroperoxide (t-BHP) was treated to have the final concentration of 400 PM, and the resulting cells were cultured for 2 hours. To confirm the cell death protection effect of each compound, the degree of extracellular secretion of lactate dehydrogenase (LDH) was measured using a cytotoxicity LDH assay kit [Dojindo; CK12]. Briefly, after 2 hours of t-BHP treatment on the cells, 70 μL of the supernatant was taken from the 96-well plate where the cells were cultured and transferred to a new 96-well plate. The assay buffer included in the kit was added at 70 μL/well (equal to that of the sample) and the plate was covered with foil to block light and allowed to react for 15 minutes at room temperature. While observing a color change of each sample, 35 μL/well of a stop solution was added, an absorbance at 490 nm was measured using an iD3 spectrophotometer, and an EC50 value was calculated.
FCCOCc1cc(NC2CCOCC2)c2[nH]c(-c3ccccc3)cc2c1 [Example 39, 5-((2-fluoroethoxy)methyl)-2-phenyl-N-(tetrahydro-2H-pyran-4-yl)-1H-indol-7-amine] was tested, and the pEC50 was no less than 6.52. COCCNCCOCc1cc(NC2CCOCC2)c2[nH]c(-c3ccccc3)cc2c1 [Example 60, 5-((2-((2-methoxyethyl)amino)ethoxy)methyl)-2-phenyl-N-(tetrahydro-2H-pyran-4-yl)-1H-indol-7-amine] showed a pEC50 of no less than 6.52. In the case of O=C(Cc1cc(NC2CCOCC2)c2[nH]c(-c3ccccc3)cc2c1)Nc1ccccc1 [Example 19, N-phenyl-2-(2-phenyl-7-((tetrahydro-2H-pyran-4-yl)amino)-1H-indo1-5-yl)acetamide], the pEC50 was no less than 6.52. OCCOCCCc1cc(NC2CCOCC2)c2[nH]c(-c3ccccc3)cc2c1 [Example 28, 2-(3-(2-phenyl-7-((tetrahydro-2H-pyran-4-yl)amino)-1H-indol-5-yl)propoxy)ethan-1-ol] gave a pEC50 of no less than 6.52. OCCCOCCOCc1cc(NC2CCOCC2)c2[nH]c(-c3ccccc3)cc2c1 [Example 34, 3-(2-((2-phenyl-7-((tetrahydro-2H-pyran-4-yl)amino)-1H-indol-5-yl)methoxy)ethoxy)propan-1-ol] was tested, and the pEC50 was no less than 6.52. For c1ccc(-c2cc3cc(COCCN4CCOCC4)cc(NC4CCOCC4)c3[nH]2)cc1 [Example 42, 5-((2-morpholinoethoxy)methyl)-2-phenyl-N-(tetrahydro-2H-pyran-4-yl)-1H-indol-7-amine], the pEC50 was no less than 6.52. For COCCOCCN(C)C(=O)c1cc(NC2CCOCC2)c2[nH]c(-c3ccccc3)cc2c1 [Example 52, N-(2-(2-methoxyethoxy)ethyl)-N-methyl-2-phenyl-7-((tetrahydro-2H-pyran-4-yl)amino)-1H-indole-5-carboxamide], the pEC50 was less than 6.00. Compound CS(=O)(=O)CCOCc1cc(NC2CCCC2)c2[nH]c(-c3ccccc3)cc2c1 [Example 44, N-cyclopentyl-5-((2-(methylsulfonyl)ethoxy)methyl)-2-phenyl-1H-indol-7-amine] has a pEC50 of no less than 6.52. With CCN(CC)C(=O)Cc1cc(NC2CCCC2)c2[nH]c(-c3ccccc3)cc2c1 [Example 11, 2-(7-(cyclopentylamino)-2-phenyl-1H-indol-5-yl)-N,N-diethylacetamide] the pEC50 was 6.00 to 6.52. O=C(Nc1ccccc1)c1cc(NC2CCOCC2)c2[nH]c(-c3ccccc3)cc2c1 [Example 9, N,2-diphenyl-7-((tetrahydro-2H-pyran-4-yl)amino)-1H-indole-5-carboxamide] gave a pEC50 of 6.00 to 6.52. COCCNC(=O)c1cc(NC2CCOCC2)c2[nH]c(-c3ccccc3)cc2c1 [Example 49, N-(2-methoxyethyl)-2-phenyl-7-((tetrahydro-2H-pyran-4-yl)amino)-1H-indol-5-carboxamide] was tested, and the pEC50 was no less than 6.52. With CC(C)(O)C#Cc1cc(NC2CCOCC2)c2[nH]c(-c3ccccc3)cc2c1 [Example 24, 2-methyl-4-(2-phenyl-7-((tetrahydro-2H-pyran-4-yl)amino)-1H-indol-5-yl)but-3-yn-2-ol] the pEC50 was no less than 6.52. CS(=O)(=O)CCOCc1cc(NC2CCOCC2)c2[nH]c(-c3ccccc3)cc2c1 [Example 45, 5-((2-(methylsulfonyl)ethoxy)methyl)-2-phenyl-N-(tetrahydro-2H-pyran-4-yl)-1H-indol-7-amine] gave a pEC50 of no less than 6.52. With COCCOCCNC(=O)c1cc(NC2CCOCC2)c2[nH]c(-c3ccccc3)cc2c1 [Example 56, N-(2-(2-methoxyethoxy)ethyl)-2-phenyl-7-((tetrahydro-2H-pyran-4-yl)amino)-1H-indole-5-carboxamide] the pEC50 was 6.00 to 6.52. In the case of CCN(CC)C(=O)c1cc(NCc2ccccc2)c2[nH]c(-c3ccccc3)cc2c1 [Example 3, 7-(benzylamino)-N,N-diethyl-2-phenyl-1H-indole-5-carboxamide], the pEC50 was no less than 6.52. CN(CCOCCO)C(=O)c1cc(NC2CCOCC2)c2[nH]c(-c3ccccc3)cc2c1 [Example 54, N-(2-(2-hydroxyethoxy)ethyl)-N-methyl-2-phenyl-7-((tetrahydro-2H-pyran-4-yl)amino)-1H-indole-5-carboxamide] was tested, and the pEC50 was 6.00 to 6.52. CC(C)(O)C#Cc1cc(NC2CCCC2)c2[nH]c(-c3ccccc3)cc2c1 [Example 25, 4-(7-(cyclopentylamino)-2-phenyl-1H-indol-5-yl)-2-methylbut-3-yn-2-ol] showed a pEC50 of no less than 6.52. Compound COCCN(C)Cc1cc(NC2CCOCC2)c2[nH]c(-c3ccccc3)cc2c1 [Example 55, 5-(((2-methoxyethyl)(methyl)amino)methyl)-2-phenyl-N-(tetrahydro-2H-pyran-4-yl)-1H-indol-7-amine] has a pEC50 of no less than 6.52. Compound CCN(CC)C(=O)Cc1cc(NCc2ccncc2)c2[nH]c(-c3ccccc3)cc2c1 [Example 13, N,N-diethyl-2-(2-phenyl-7-((pyridin-4-ylmethyl)amino)-1H-indol-5-yl)acetamide] has a pEC50 of 6.00 to 6.52. For OC1CCC(OCCOCc2cc(NC3CCOCC3)c3[nH]c(-c4ccccc4)cc3c2)CC1 (centres unmarked) [Example 38, 4-(2-((2-phenyl-7-((tetrahydro-2H-pyran-4-yl)amino)-1H-indol-5-yl)methoxy)ethoxy)cyclohexan-1-ol], the pEC50 was less than 6.00. In the case of c1ccc(-c2cc3cc(COCCN4CCSCC4)cc(NC4CCOCC4)c3[nH]2)cc1 [Example 46, 2-phenyl-N-(tetrahydro-2H-pyran-4-yl)-5-((2-thiomorpholinoethoxy)methyl)-1H-indol-7-amine], the pEC50 was no less than 6.52. O=C(Cc1cc(NCc2ccccc2)c2[nH]c(-c3ccccc3)cc2c1)NC1CC1 [Example 17, 2-(7-(benzylamino)-2-phenyl-1H-indol-5-yl)-N-cyclopropylacetamide] gave a pEC50 of no less than 6.52. For O=C(Cc1cc(NCc2ccccc2)c2[nH]c(-c3ccccc3)cc2c1)Nc1ccccc1 [Example 18, 2-(7-(benzylamino)-2-phenyl-1H-indol-5-yl)-N-phenylacetamide], the pEC50 was 6.00 to 6.52. For CCN(CC)C(=O)c1cc(NCc2ccncc2)c2[nH]c(-c3ccccc3)cc2c1 [Example 4, N,N-diethyl-2-phenyl-7-((pyridin-4-ylmethyl)amino)-1H-indole-5-carboxamide], the pEC50 was no less than 6.52. For CC(C)(O)COCc1cc(NC2CCOCC2)c2[nH]c(-c3ccccc3)cc2c1 [Example 30, 2-methyl-1-((2-phenyl-7-((tetrahydro-2H-pyran-4-yl)amino)-1H-indol-5-yl)methoxy)propan-2-ol], the pEC50 was no less than 6.52. With COCCN(C)C(=O)c1cc(NC2CCOCC2)c2[nH]c(-c3ccccc3)cc2c1 [Example 51, N-(2-methoxyethyl)-N-methyl-2-phenyl-7-((tetrahydro-2H-pyran-4-yl)amino)-1H-indole-5-carboxamide] the pEC50 was no less than 6.52. In the case of CNC(=O)Cc1cc(NC2CCOCC2)c2[nH]c(-c3ccccc3)cc2c1 [Example 15, N-methyl-2-(2-phenyl-7-((tetrahydro-2H-pyran-4-yl)amino)-1H-indol-5-yl)acetamide], the pEC50 was no less than 6.52. Compound COCCN(C)CCOCc1cc(NC2CCOCC2)c2[nH]c(-c3ccccc3)cc2c1 [Example 61, 5-((2-((2-methoxyethyl)(methyl)amino)ethoxy)methyl)-2-phenyl-N-(tetrahydro-2H-pyran-4-yl)-1H-indol-7-amine] has a pEC50 of no less than 6.52. Compound CS(=O)(=O)NCCOCc1cc(NC2CCOCC2)c2[nH]c(-c3ccccc3)cc2c1 [Example 59, N-(2-((2-phenyl-7-((tetrahydro-2H-pyran-4-yl)amino)-1H-indol-5-yl)methoxy)ethyl)methanesulfonamide] has a pEC50 of no less than 6.52.
